What was measured:
HCV replicon = HCV replicon FRET assay (NS3 protease activity as indirect measure of HCV RNA replication); format: cell-based, Hepatitis C virus; settings: FIG. 7A IFN-α control titration 1000 to 1 units
Text: To perform the HCV FRET screening assay, 96-well cell culture plates were used. The FRET peptide (Anaspec, Inc.) (Taliani et al., Anal. Biochem. 240:60-67 (1996), expressly incorporated by reference in its entirety) contains a fluorescence donor, EDANS, near one end of the peptide and an acceptor, DABCYL, near the other end. The fluorescence of the peptide is quenched by intramolecular resonance energy transfer (RET) between the donor and the acceptor, but as the NS3 protease cleaves the peptide the products are released from RET quenching and the fluorescence of the donor becomes apparent. […]
Subsequent to addition of the test compounds described above (FRET Assay Preparation), at various times the plate was removed and Alamar Blue solution (Trek Diagnostics, #00-100) was added per well as a measure of cellular toxicity. After reading in a Cytoflour 4000 instrument (PE Biosystems), plates were rinsed with PBS and then used for FRET assay by the addition of 30 ul of the FRET peptide assay reagent described above (FRET Assay Preparation) per well. The plate was then placed into the Cytoflour 4000 instrument which had been set to 340 excite/490 emission, automatic mode for 20 cycles and the plate read in a kinetic mode. Typically, the signal to noise using an endpoint analysis after the reads was at least three-fold. […]

Huh-7 replicon cells = test: Alamar Blue cytotoxicity assay; format: cell-based; settings: lower concentrations of IFN-α (100, 10, 1 units)
Procedure: Subsequent to addition of the test compounds described above (FRET Assay Preparation), at various times the plate was removed and Alamar Blue solution (Trek Diagnostics, #00-100) was added per well as a measure of cellular toxicity. After reading in a Cytoflour 4000 instrument (PE Biosystems), plates were rinsed with PBS and then used for FRET assay by the addition of 30 ul of the FRET peptide assay reagent described above (FRET Assay Preparation) per well. The plate was then placed into the Cytoflour 4000 instrument which had been set to 340 excite/490 emission, automatic mode for 20 cycles and the plate read in a kinetic mode. Typically, the signal to noise using an endpoint analysis after the reads was at least three-fold.
Compound analysis was determined by quantification of the relative HCV replicon inhibition and the relative cytotoxicity values. To calculate cytotoxicity values, the average Alamar Blue fluorescence signals from the control wells in row 11 (FIG. 4) were set as 100% non-toxic. The individual signals in each of the compound test wells were then divided by the average control signal and multiplied by 100% to determine […]. To calculate the HCV replicon inhibition values, an average background value FRET signal was obtained from the two wells containing the highest amount of interferon at the end of the assay period. […]

Interferon alpha [IFN-α]
EC50 in control samples of random compound plate (FRET) (HCV replicon): close to or slightly lower than the lowest concentration of IFN-α used
cytotoxicity (Alamar Blue staining change) (Huh-7 replicon cells): no apparent Alamar Blue staining change

Source: patent US20050260568A1, “Hepatitis C virus assays” (priority 2004, published 2005)
